SMILES strings stand for the structures.

As to `COc1ccc(OC)c2c(Nc3ccc(Cl)cc3F)c(C#N)cnc12`, the melting point was in the range of 197 to 199 °C.

`Fc1ccccc1-c1nc2cccnc2o1` showed a melting point of 119 to 120 °C.

On to `COc1cccc(OC)c1CN1CC2CCCN2c2ncccc21` (stereo unspecified), for which the melting point lay in the range of 211 to 213 °C.

Compound `NC(=O)c1ccc(F)c2c1CC(NCCCc1c[nH]c3ccc(F)cc13)CO2` (stereo unspecified) gave a melting point of 122 °C.

For `CC(=O)NC[C@H]1CN(c2ccc(C(=O)c3ccc4cnc(C)cn34)cc2)C(=O)O1`, the melting point lay in the range of 248 to 250 °C.

Consider `O=[N+]([O-])c1cc(C(F)(F)F)ccc1Sc1ccc(O)cc1`, for which the melting point was 131 to 134 °C.

Compound `CN(C)CCn1c(=O)[nH]c2cccnc21` came in with a melting point of 141 to 142 °C.

In turn, `COc1ccc(C(C#Cc2ccccc2)Cc2nnc(C)o2)cc1OC1CCCC1` (racemic) came in with a melting point of 105 to 106 °C.

Take `NC(=O)NN=Cc1ccc(OCCc2coc(-c3ccccc3)n2)cc1`: the melting point was in the range of 221 to 226 °C.

Compound `CCC1(CC)NS(=O)(=O)c2ccccc21` returned a melting point of 174 °C.

`c1ccc(CCOc2c3c(nc4ccccc24)CCN(Cc2ccccc2)CC3)cc1` came in with a melting point of under 20 °C.

Compound `CCOC(=O)c1cc2c([nH]1)CCCC2` showed a melting point of 70 to 72 °C.

In the case of `CCOC(=O)c1cc2n(C)c3ccccc3c(=O)n2n1`, the melting point was in the range of 239 to 241 °C.

For the compound `Fc1ccc(-c2ncncc2CCN2CCC(c3csc4cc(F)ccc34)CC2)cc1`, the melting point lay in the range of 123 to 124 °C.

Turning to `CC1(C)Oc2cc(Br)sc2C(N2CCCC2=O)C1O` (stereo unspecified), the melting point lay in the range of 162 to 165 °C.

`O=c1[nH]c(=O)n(C2CC(F)C(CCl)O2)cc1C=CBr` (stereo unspecified): the melting point turned out to be 203 °C.

Compound `CN(C)CCOc1ccc2[nH]c(C(=O)N3CC(CCl)c4c3cc([N+](=O)[O-])c3cc([N+](=O)[O-])ccc43)cc2c1` (stereo unspecified) registered a melting point of 263 to 264 °C.

The compound `CC[C@H]1CN(c2c(F)cc3c(=O)c(C(=O)O)cn4c3c2OC[C@@H]4C)C[C@H]1NC` gave a melting point of 211 to 213 °C.

For `NC(=O)NCC1CCCc2cc(NS(=O)(=O)c3cccc(F)c3)ccc21` (stereo unspecified), the melting point lay within 162 to 163 °C.

Compound `COC(=O)c1ccc(SC)c(C(F)(F)F)c1` yielded a melting point of 76 to 77 °C.

On to `Cc1nnc(-c2cccc(-c3cnc4[nH]cc(C(=O)C5(C)CCCCC5)c4n3)c2)o1`, for which the melting point lay in the range of 234 to 236 °C.

Take `CC1CNc2c(cnc3cc(Cl)ccc23)O1` (stereo unspecified): the melting point lay within 239 to 241 °C.

For the compound `CCCCCCCCCCCCCCC#Cc1cccc(C=O)n1`, the melting point was 38.5 to 40 °C.

`O=C(O)C1CCc2c(c3cc(O)ccc3n2C(=O)c2ccccc2)C1` (stereo unspecified) registered a melting point of 224 to 227 °C.

With `Cc1ccc(S(=O)(=O)Nc2cccc3c2Nc2ccc(O)cc2CO3)s1`, the melting point was in the range of 184 to 188 °C.

The compound `CC(=O)OCCC1CCc2c(C3=C(c4cn(C)c5ccccc45)C(=O)OC3=O)c3ccccc3n2C1` (stereo unspecified) had a melting point of 182 to 184 °C.

For the compound `CCCCCCCCC(O)CNCCNCC(O)CCCCCCCC` (stereo unspecified), the melting point was 140 to 146 °C.

In the case of `Cc1c(C)c2c(c(C)c1O)CCC(C)(C(=O)Nc1ccccc1)O2` (stereo unspecified), the melting point was 107 to 109 °C.

With `COc1ccc(O)c2c1C(=O)N(Cc1ccccc1)S2=O` (stereo unspecified), the melting point is 235 to 237 °C.

In turn, `CC(C)=CCN1Cc2c(Br)ccc3[nH]c(=S)n(c23)C[C@@H]1C` came in with a melting point of 161 °C.

As to `C=C(Cc1ccccc1C)C(=O)O`, the melting point lay in the range of 82 to 83 °C.

For `COc1cc(OC)c(C2C=CCO2)cc1C=CC(=O)c1ccc(S(N)(=O)=O)cc1` (stereo unspecified), the melting point is 194 to 195 °C.

`CC(=O)NCC1CC(c2ccc(C3=CCN(C(=O)OC(C)(C)C)CC3)cc2)=NO1` (stereo unspecified) showed a melting point of 117 to 120 °C.

Turning to `CCOC(=O)c1cc2cc(OCCCOC)cc([N+](=O)[O-])c2[nH]1`, the melting point lay in the range of 94 to 95 °C.

Turning to `O=C1c2ccccc2C2(O)Oc3c(ccc(Cl)c3Cl)C12O` (stereo unspecified), the melting point lay within 142 to 150 °C.

As for `Cc1c(Sc2ccc(Cl)cc2)c2cc(NS(C)(=O)=O)ccc2n1CC(=O)O`, the melting point amounted to 214 °C.

For the origin of these results see a melting point compilation (Tetko et al.; mined from patent text by program, amines drawn as free bases though some values may be those of a salt).
